This is an account of results in patent publication US4375475A, “Substituted pyranone inhibitors of cholesterol synthesis” (Merck & Co., Inc., priority 1981, dated 1983).

One assay has as its system mouse L cells. To be noted: method B, values of Belgian Pat. No. 867,421, read-out: IC50 (inhibition of 50% of the biosynthesis of cholesterol) as reported in the cited Belgian patent; cited from earlier work.
For assay [1], the target named is T1, 3-hydroxy-3-methylglutaryl-coenzyme A reductase (Rattus norvegicus, UniProt P51639).
T1 construct: from tissue
T1 sequence (P51639 1-887): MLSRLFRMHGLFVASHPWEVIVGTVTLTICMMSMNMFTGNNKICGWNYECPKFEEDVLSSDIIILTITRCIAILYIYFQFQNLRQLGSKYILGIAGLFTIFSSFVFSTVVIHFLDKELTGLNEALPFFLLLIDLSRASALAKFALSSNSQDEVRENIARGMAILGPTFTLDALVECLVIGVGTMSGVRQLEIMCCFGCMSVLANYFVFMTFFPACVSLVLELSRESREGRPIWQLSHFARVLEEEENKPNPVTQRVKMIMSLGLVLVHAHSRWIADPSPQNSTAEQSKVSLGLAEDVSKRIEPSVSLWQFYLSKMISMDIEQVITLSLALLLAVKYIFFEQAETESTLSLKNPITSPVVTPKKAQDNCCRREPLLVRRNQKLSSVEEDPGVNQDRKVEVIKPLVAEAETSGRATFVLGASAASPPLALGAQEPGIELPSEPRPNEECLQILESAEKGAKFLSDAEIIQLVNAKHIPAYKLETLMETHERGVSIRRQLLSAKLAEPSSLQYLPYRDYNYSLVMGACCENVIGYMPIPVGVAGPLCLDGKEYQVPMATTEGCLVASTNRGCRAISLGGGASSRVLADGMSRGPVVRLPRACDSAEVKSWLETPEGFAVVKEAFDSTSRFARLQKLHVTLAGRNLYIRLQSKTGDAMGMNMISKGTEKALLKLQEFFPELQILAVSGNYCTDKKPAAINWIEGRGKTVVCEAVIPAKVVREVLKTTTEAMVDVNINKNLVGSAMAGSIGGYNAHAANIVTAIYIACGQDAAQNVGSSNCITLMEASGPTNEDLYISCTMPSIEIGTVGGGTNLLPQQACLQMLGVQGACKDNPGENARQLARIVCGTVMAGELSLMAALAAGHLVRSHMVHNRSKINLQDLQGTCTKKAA
The settings on record: method A; values of Belgian Pat. No. 867,421; read-out: IC50 as reported in the cited Belgian patent; cited from earlier work.

Assay [2] addresses T1, 3-hydroxy-3-methylglutaryl-coenzyme A reductase. The assay is described as follows: method A: in vitro method of H. J. Knauss et al., inhibition of 50% of the enzymatic activity. The settings on record: compounds tested as the sodium salts of their corresponding hydroxy acid forms. Type of assay: biochemical. From the text: The inhibitory activity of these compounds for the biosynthesis of cholesterol has been measured by two methods. The experimental method A was the in vitro method of H. J. Knauss, et al., J. Biol. Chem., 234, 2835 (1959) and the activity was expressed as the molar concentration IC50 (M) necessary for the inhibition of 50% of the enzymatic activity. The experimental method B was the method of A. A. Kandutsch, et al., J. Biol. Chem., 248, 8403 (1973) for measuring the quantity of ^14 C-cholesterol biosynthesis from acetic acid-^14 C in mouse L cells. The activity is expressed for inhibition of 50% of the biosynthesis of cholesterol.

Structures can show the parent of a compound that is named as a salt. Where two headings read alike, the source gives them in different places.

Regarding `CC[C@H](C)C(=O)O[C@H]1CCC=C2C=C[C@H](C)[C@H](CC[C@@H]3C[C@@H](O)CC(=O)O3)[C@H]21` [compactin], the IC50 (in the assay with mouse L cells; in assay [1]) was approximately 8 nM each time.
On to `O=C(O)C[C@H](O)C[C@H](O)/C=C/c1c(Cl)cc(Cl)cc1-c1ccc(F)cc1` (relative stereo) [Example 43, (+)-(E)-(3R*,5S*)-7-(3,5-dichloro-4'-fluoro[1,1'-biphenyl]-2-yl)-3,5-dihydroxy-6-heptenoic acid, ammonium salt], for which the half-maximal inhibitory concentration (IC50) (commonly the concentration at which inhibition is half-maximal) in assay [2] was approximately 13 nM.
Turning to `Cc1cc(C)cc(-c2cc(C)cc(C)c2C=CC2CC(O)CC(=O)O2)c1` (stereo not drawn) [6-[2-(3,3',5,5'-tetramethyl-[1,1'-biphenyl]-2-yl)ethenyl]-3,4,5,6-tetrahydro-4-hydroxy-2H-pyran-2-one], the half-inhibitory concentration (IC50) in assay [2] stood at 15 nM.
As for `O=C1C[C@@H](O)C[C@H](CCc2c(Cl)cc(Cl)cc2OCc2ccccc2)O1` [Example 14, (+)-Trans-6-[2-(2,4-dichloro-6-phenylmethoxyphenyl)ethyl]-3,4,5,6-tetrahydro-4-hydroxy-2H-pyran-2-one], the concentration for half-maximal inhibition (IC50) in assay [2] turned out to be 68 nM.
As for `Cc1cc(C)c(C=CC2CC(O)CC(=O)O2)c(-c2ccc(F)c(C)c2)c1` (stereo not drawn) [6-[2-(4'-fluoro-3,3',5-trimethyl[1,1'-biphenyl]-2-yl)ethenyl]-3,4,5,6-tetrahydro-4-hydroxy-2H-pyran-2-one], the IC50 in assay [2] was 7 nM.
